Reference: patent publication US8497265B2, “Heteroaryloxyheterocyclyl compounds as PDE10 inhibitors” (Amgen Inc., priority 2010, dated 2013)

Target: PDE10 (Mus musculus, UniProt Q8CA95)
Test: PDE10 enzyme inhibition (IMAP TR-FRET assay)
Format: biochemical
Settings: Table 8A
Method: MPDE10A7 Enzyme Activity and Inhibition
Enzyme Activity. An IMAP TR-FRET assay was used to analyze the enzyme activity (Molecular Devices Corp., Sunnyvale Calif.). 5 μL, of serial diluted PDE10A (BPS Bioscience, San Diego, Calif.) or tissue homogenate was incubated with equal volumes of diluted fluorescein labeled cAMP or cGMP for 60 min in 384-well polystyrene assay plates (Corning, Corning, N.Y.) at room temperature. After incubation, the reaction was stopped by adding 60 μL, of diluted binding reagents and was incubated for 3 hours to overnight at room temperature. The plates were read on an Envision (Perkin Elmer, Waltham, Mass.) for time resolved fluorescence resonance energy transfer. The data were analyzed with GraphPad Prism (La Jolla, Calif.).
Enzyme Inhibition. To check the inhibition profile, 5 μL of serial diluted compounds were incubated with 5 μL of diluted PDE10 enzyme (BPS Bioscience, San Diego, Calif.) or tissue homogenate in a 384-well polystyrene assay plate (Corning, Corning, N.Y.) for 30 min at room temperature. […] The reaction was stopped by adding 60 μL of diluted binding reagents and plates were read on an Envision (Perkin Elmer, Waltham, Mass.) for time resolved fluorescence resonance energy transfer. The data were analyzed with GraphPad Prism (La Jolla, Calif.).

Sequence of PDE10 (Q8CA95 whole entry, looked up): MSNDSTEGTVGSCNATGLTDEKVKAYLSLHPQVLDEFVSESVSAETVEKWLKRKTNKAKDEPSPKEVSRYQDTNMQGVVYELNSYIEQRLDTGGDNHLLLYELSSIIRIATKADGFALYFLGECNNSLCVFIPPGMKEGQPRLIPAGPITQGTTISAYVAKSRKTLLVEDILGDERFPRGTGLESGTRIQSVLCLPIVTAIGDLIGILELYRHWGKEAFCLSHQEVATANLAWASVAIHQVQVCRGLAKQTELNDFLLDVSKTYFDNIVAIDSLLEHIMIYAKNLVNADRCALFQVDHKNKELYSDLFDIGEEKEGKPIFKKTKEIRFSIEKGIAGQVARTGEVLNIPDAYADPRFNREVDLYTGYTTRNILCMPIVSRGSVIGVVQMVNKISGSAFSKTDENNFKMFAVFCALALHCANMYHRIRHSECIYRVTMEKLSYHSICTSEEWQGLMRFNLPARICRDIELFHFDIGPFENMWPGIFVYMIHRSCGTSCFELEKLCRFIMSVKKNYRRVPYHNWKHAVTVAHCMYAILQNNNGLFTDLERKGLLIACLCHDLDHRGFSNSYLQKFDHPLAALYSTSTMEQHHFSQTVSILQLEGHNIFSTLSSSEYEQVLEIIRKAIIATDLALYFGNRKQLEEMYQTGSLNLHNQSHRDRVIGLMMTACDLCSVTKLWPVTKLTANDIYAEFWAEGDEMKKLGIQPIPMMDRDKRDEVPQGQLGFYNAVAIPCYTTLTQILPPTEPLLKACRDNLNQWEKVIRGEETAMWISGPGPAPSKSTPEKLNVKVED

## 1-(4-(3-((1-(quinolin-2-yl)azetidin-3-yl)oxy)pyrazin-2-yl)phenyl)ethanone [Example 10.26]
  IC50: 24.4 nM
